Source: patent publication US20040142978A1, “Aminocyanopyridine inhibitors of mitogen activated protein kinase-activated protein kinase-2” (Pharmacia Corporation, priority 2002, published 2004)
Counter-ions that a name gives are not always drawn. Like-named read-outs stand apart in the source and are kept apart here. One block for each compound: values may come before it.

Columns and labels:
[1] = test system: TNFα release from U937 cells; experiment: U937 Cell TNFα Release Assay (LPS-stimulated, TNFα ELISA); assay type: cell-based; conditions: Homo sapiens, read-out: TNFα release assay IC50
Method: The human monocyte-like cell line, U937 (ATCC #CRL-1593.2), is cultured in RPMI1640 media with 10% heat-inactivated fetal calf serum (GIBCO), glutamine and pen/strep at 37° C. and 5% CO2. Differentiation of U937 to monocytic/macrophage-like cells is induced by the addition of phorbol12-myristate 13-acetate (Sigma) at final concentration of 20 ng/ml to a culture of U937 cells at ˜0.5 million cells/ml and incubated for 24 hrs. The cells are centrifuged, washed with PBS and resuspended in fresh media without PMA and incubated for 24 hrs. Cells adherent to the culture flask are harvested by scraping, centrifugation, and resuspended in fresh media to 2 million cells/ml, and 0.2 ml is aliquoted to each of 96 wells in flat-bottom plate. Cells are then incubated for an additional 24 hrs to allow for recovery. The media is removed from the cells, and 0.1 ml of fresh media is added per well. 0.05 ml of serially diluted compound or control vehicle (Media with DMSO) is added to the cells. […] After 1 hr incubation, 0.05 ml of 400 ng/ml LPS (E Coli serotype 0111:B4, Sigma) in media is added for final concentration of 100 ng/ml. Cells are incubated at 37° C. for 4 hrs. After 4 hrs incubation, supernatants are harvest and assayed by ELISA for the presence of TNFα.
ELISA plates (NUNC-Immuno™ Plate Maxisorb™ Surface) were coated with purified mouse monoclonal IgG1 anti-human TNFα antibody (R&D Systems #MAB610; 1.25 ug/ml in sodium bicarbonate pH 8.0, 0.1 ml/well) and incubated at 4° C. Coating solution was aspirated the following day and wells were blocked with 1 mg/ml gelatin in PBS (plus 1× thimerasol) for 2 days at 4° C. Prior to using, wells were washed 3× with wash buffer (PBS with 0.05% Tween). Cultured media samples were diluted in EIA buffer (5 mg/ml bovine γ-globulin, 1 mg/ml gelatin, 1 ml/l Tween-20, 1 mg/ml thimerasol in PBS), added to wells (0.1 ml/well) in triplicate and allowed to incubate for 1.5 hr at 37° C. in a humidified chamber. Plates were again washed and 0.1 ml/well of a mixture of rabbit anti-human TNFα polyclonal antibodies in EIA buffer (1:400 dilution of Sigma #T8300, and 1:400 dilution of Calbiochem #654250) was added for 1 hr at 37° C. Plates were washed as before and peroxidase-conjugated goat anti-rabbit IgG (H+L) antibody (Jackson lmmunoResearch #111-035-144, 1 ug/ml in EIA buffer, 0.1 ml/well) was added for 45 min. After final washing, plates were developed with peroxidase-ABTS solution (Kirkegaard/Perry #50-66-01, 0.1 ml/well). Enzymatic conversion of ABTS to colored product was measured after 5-30 minutes using a SpectroMax 340 spectrophotometer (Molecular Devices) at 405 nm. TNF levels were quantitated from a recombinant human TNFα (R&D Systems #210-TA-010) standard curve using a quadratic parameter fit generated by SoftMaxPRO software. ELISA sensitivity was approximately 30 pg TNF/ml. IC50 values for compounds were generated using BioAssay Solver.

TNFα production = experiment: Lipopolysaccharide (LPS)-Induced TNFα Production (Rat LPS assay, serum TNFα ELISA); assay type: in vivo, Lewis rats; conditions: 20 mpk (IG)
Method: Adult male 225-250 gram Lewis rats (Harlan Sprague-Dawley) were used. Rats were fasted 18 hr prior to oral dosing, and allowed free access to water throughout the experiment. Each treatment group consisted of 5 animals.
Compounds were prepared as a suspension in a vehicle consisting of 0.5% methylcellulose, 0.025% Tween-20 in PBS. Compounds or vehicle were orally administered in a volume of 1 ml using an 18 gauge gavage needle. LPS (E. coli serotype 0111:B4, Lot #39H4103, Cat. # L-2630, Sigma) was administered 1-4 hr later by injection into the penile vein at a dose of 1 mg/kg in 0.5 ml sterile saline. Blood was collected in serum separator tubes via cardiac puncture 1.5 hr after LPS injection, a time point corresponding to maximal TNFα production. […]
ELISA plates (NUNC-Immuno™ Plate Maxisorb™ Surface) were coated with 0.1 ml per well of an Protein G purified fraction of a 2.5 ug/ml of hamster anti-mouse/rat TNFα monoclonal antibody TN19.12 (2.5 ug/ml in PBS, 0.1 ml/well). […] Enzymatic conversion of ABTS to colored product was measured after ˜30 minutes using a SpectroMax 340 spectrophotometer (Molecular Devices Corp.) at 405 nm. TNF levels in serum were quantitated from a recombinant rat TNFα (BioSource International, Cat. #PRC3014.) standard curve using a quadratic parameter fit generated by SoftMaxPRO software. […]

[2] = biological target: Recombinant MAPKAPK2 (MK-2) (Homo sapiens, UniProt P49137); experiment: Determination of MK-2 IC50 (anion exchange resin capture assay, phosphorylation of HSP-peptide); assay type: biochemical
Method: The phosphorylation of HSP-peptide ([…]) by MAPKAPK2 was measured using an anion exchange resin capture assay method. […] The reaction was terminated and [γ^33P]ATP was removed from solution by the addition of 150 μl of AG 1×8 ion exchange resin in 900 mM sodium formate pH 3.0. A 50 μl aliquot of head volume was removed from the quenched reaction mixture and added to a 96-well plate, 150 μl of Microscint-40 (Packard) was added and the amount of phosphorylated-peptide was determined. Allow the Microscint to sit in the plates for 60 minutes prior to counting.
Compounds are evaluated as potential inhibitors of the MK2 kinase by measuring their effects on MK2 phosphorylation of the peptide substrate. Compounds may be screened initially at two concentrations prior to determination of IC50 values. Screening results are expressed as percent inhibition at the concentrations of compound tested. For IC50 value determinations, compounds are tested at six concentrations in ten-fold serial dilutions with each concentration tested in triplicate. Results are expressed as IC50 values in micromolar. The assay is performed at a final concentration of 2% DMSO.

[3] = U-937, U937 cells, LPS 100 ng/ml, 4 hrs

Sequence of Recombinant MAPKAPK2 (MK-2) (P49137 whole entry, species assumed): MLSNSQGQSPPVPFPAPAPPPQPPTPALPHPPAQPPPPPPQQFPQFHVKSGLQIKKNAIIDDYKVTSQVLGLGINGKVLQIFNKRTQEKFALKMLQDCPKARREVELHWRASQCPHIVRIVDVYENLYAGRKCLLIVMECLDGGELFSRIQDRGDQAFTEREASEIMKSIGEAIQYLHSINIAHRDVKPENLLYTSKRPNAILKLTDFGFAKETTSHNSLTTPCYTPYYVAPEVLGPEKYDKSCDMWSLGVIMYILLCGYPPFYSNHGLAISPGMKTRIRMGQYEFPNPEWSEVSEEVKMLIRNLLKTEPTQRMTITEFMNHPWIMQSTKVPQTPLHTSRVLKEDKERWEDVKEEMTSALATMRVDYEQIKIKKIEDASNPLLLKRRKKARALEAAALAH

SMILES: N#Cc1c(-c2cnc[nH]2)cc(-c2cccc(O)c2)nc1N [Example 4, 2-amino-6-(3-hydroxyphenyl)-4-(1H-imidazol-5-yl)nicotinonitrile trifluoroacetate]
IC50 ([1]; U-937, 4 h): 7 µM | Rat LPS assay: inhibition of TNFα production (TNFα production): 41%

IC50 [2]: 64.6 µM
SMILES: N#Cc1c(-c2ccc(B(O)O)cc2)cc(-c2ccco2)nc1N [Example 88, bis(trifluoroacetate)]

IC50 [1, 3]: 17.7 µM
SMILES: N#Cc1c(N)nc2c(c1-c1ccccc1)CCc1n[nH]cc1-2 [Example 100, 2-amino-4-phenyl-6,8-dihydro-5H-pyrazolo[3,4-h]quinoline-3-carbonitrile bis(trifluoroacetate)]

SMILES: N#Cc1c(N)nc2c(c1-c1cccc(F)c1F)CCc1[nH]ncc1-2.O=C(O)C(F)(F)F.O=C(O)C(F)(F)F [Example 102, 2-amino-4-(2,3-difluorophenyl)-6,7-dihydro-5H-pyrazolo[3,4-h]quinoline-3-carbonitrile bis(trifluoroacetate)]
IC50 ([1]; U-937, 4 h): 4 µM | Rat LPS assay: inhibition of TNFα production (TNFα production): 83%

SMILES: N#Cc1c(N)nc2c(c1-c1ccco1)CCc1cn[nH]c1-2 [Example 105, 8-amino-6-(2-furyl)-4,5-dihydro-1H-pyrazolo[4,3-h]quinoline-7-carbonitrile]
IC50 [1, 3]: 0.9 µM

IC50 [1, 3]: 4 µM
SMILES: N#Cc1c(-c2ccco2)cc(-c2cc[nH]n2)nc1N [Example 106, 2-amino-4-(2-furyl)-6-(1H-pyrazol-3-yl)nicotinonitrile trifluoroacetate]

IC50 [2]: 127 µM
SMILES: CCOCC1Cc2c(nc(N)c(C#N)c2N)O1 (stereo not drawn) [Example 125, trifluoroacetate]
